In patent US20250186503A1, “METHODS AND COMBINATIONS FOR TREATMENT AND T CELL MODULATION” (Juno Therapeutics, Inc., priority 2018, published 2025):

Columns and labels:
[1] = test system: Granta-519 tumor spheroids; experiment: Granta-519 spheroid tumor growth assay after concurrent treatment during chronic stimulation; format: cell-based, human
Description: Averaged measurement of tumor spheroid size at various times following co-culture with CAR-T cells was monitored.
The log 2 fold change compared to control cells (chronically stimulated cells that had not been concurrently treated with immunomodulatory compound) is shown in FIG. 48E. […] The results further support that immunomodulatory compounds during conditions that can promote exhaustion, such as during chronic stimulation, can improve or preserve CAR T cell function and limit, reduce or prevent CAR T cell exhaustion.

[2] = test system: RL CD19+ tumor cells; experiment: Acute cytolytic activity, anti-CD19 CAR T cells co-cultured with RL CD19+ tumor cells; format: cell-based
Procedure: Acute cytolytic activity was measured by tumor cell number over time.

[3] = test system: IMiD/CELMoD resistant cell line DF-15R; experiment: Rescue of chronically stimulated anti-BCMA CAR T cells rechallenged with DF-15R; format: cell-based; conditions: rechallenge with DF-15R
Procedure: Cytolytic activity and cytokine production following the rechallenge were assessed as described above.

[4] = test system: RPMI-8226; experiment: Cytokine production of anti-BCMA CAR T cells incubated with RPMI-8226 target cells; format: cell-based, human
Description: Culture of T cells not expressing the anti-BCMA CAR (mock) was used as a control.

[5] = test system: RPMI-8226; experiment: 3D myeloma model (reconstructed bone marrow embedded with RPMI-8226); format: cell-based, human; conditions: 1.0 μM
Description: To assess cell function in the context of a three-dimensional (3-D) human BCMA-expressing tissue microenvironment, a reconstructed bone marrow (rBone™) (z[…], San Jose, CA) was embedded with BCMA-expressing RPMI-8226.
After 2 or 7 days, cells were isolated and assessed by flow cytometry for surface expression of CD3, CD25, CD4, and CD8.

[6] = test system: K562-CD19 cells; experiment: Cytolytic activity of serially restimulated anti-CD19 CAR+ T cells against K562-CD19 cells; format: cell-based, human; conditions: 1 μM, 2nd and 4th restimulation
Procedure: Cells from each condition were plated in triplicate. Representative cell killing observed at the 2nd and 4th restimulation for both donors is shown in FIG. 18A (as normalized to K562—CD19-Nuc-labeled cells at t=0) or in FIG. 18B (% cell killing compared to vehicle only control (set at 100%)).

[7] = test system: RPMI-8226; experiment: Cytolytic activity against RPMI-8226 after seven days incubation with BCMA-conjugated beads; format: cell-based, human
Procedure: Cytolytic activity of CAR+ T cells after incubation with BCMA-conjugated beads was assessed by incubation with the BCMA-expressing target cell line RPMI-8226, which is a BCMA+multiple myeloma cell line. […] The number of viable cells was normalized to cells at day 0 prior to incubation with the RPMI-8226 target cells.

[8] = test system: anti-CD19 CAR-expressing T cells; experiment: Surface marker expression after 4 days anti-idiotypic antibody stimulation; format: cell-based, human; conditions: for surface markers CD25 and CD69: 4 days, some donor-derived cells, depending on stimulation; for expression of the surrogate marker for CAR expression: anti-idiotypic antibody 0.3 μg/ml; for expression of PD-1: cells generated from at least one donor
Procedure: Anti-CD19 CAR-expressing T cells compositions (containing CD4+ and CD8+ T cells combined at a 1:1 ratio) were generated substantially as described in Example 14. Approximately 1×10^5 CAR-expressing cells were added to wells of a 96-well plate that had been pre-coated with an anti-idiotypic antibody specific to the scFv of the anti-CD19 CAR-expressing T cells at concentrations of 0, 0.3, 3 and 30 μg/ml. […] Cytokine expression and expression of surface markers of anti-CD19 CAR-expressing T cells were assessed.
CAR-expressing T cells were stained for CD3, CD4, CD8 and the surrogate marker for CAR expression, and also for the following markers: CD25, PD-1, and CD69.

[9] = test system: anti-CD19 CAR-expressing T cells with K562.CD19 cells; experiment: Serial stimulation of anti-CD19 CAR+ T cells with irradiated K562.CD19 cells (surface markers, cytolytic activity, expansion); format: cell-based, human; conditions: for cell doublings: 1000 nM; for CD25 and LAG3 expression: day 4, all three donors; for PD-1 expression: day 4 and day 28, both E:T ratios; for cytolytic activity after serial stimulation: day 24; for CCR7 expression: day 28
Procedure: Every 3-4 days (start of each new round), the cells were counted.
Expression of select surface markers was assessed on cells at day 4 (i.e., 4 days after the first stimulation) and day 28 (i.e., 4 days after the seventh stimulation). Specifically, harvested cells were analyzed by flow cytometry for CD3, CD4, CD8 and the surrogate marker for CAR expression, and also for the following surface markers: CD69, CD107a, PD-1, CD25, CD62L, CCR7, CD45RO, CD27, and LAG3.

[10] = test system: anti-CD19 CAR T cells; experiment: RNA-seq of anti-CD19 CAR T cells, compound concurrent with long-term stimulation; format: cell-based, human; conditions: present during chronic stimulation
Procedure: Gene expression was analyzed by RNA sequencing (RNA-seq) on the complementary DNA (cDNA) samples prepared from the RNA isolated from the long-term stimulated CAR-expressing T cells or on CAR-expressing T cells that had not undergone the long-term stimulation.

[11] = test system: K562 cells transduced to express CD19; experiment: Cytolytic activity of anti-CD19 CAR+ T cells against K562-CD19 cells; conditions: 1-5000 nM, E:T 2.5:1, about 120 hours
[12] = molecular target: T1, Ikaros (Homo sapiens, UniProt Q13422+Q96SW2); experiment: Intracellular Ikaros expression (flow cytometry MFI) in anti-CD19 CAR-expressing T cells after overnight incubation; format: cell-based
T1 construct: intracellular levels of Ikaros in CD4+ CAR+ or CD8+ CAR+ cells; endogenous in cells; host or cells: primary human CD4+ and CD8+ T cells transduced with an anti-CD19 CAR (FMC63 scFv)
Procedure: Transduced populations then were separately incubated in the presence of stimulating reagents for cell expansion.

[13] = test system: phosphorylated STAT5; experiment: Phosphorylated STAT5 in CAR T cells incubated with conditioned supernatants; format: cell-based, human; conditions: both concentrations used
Procedure: Conditioned supernatants from stimulated CAR T cultures were harvested after overnight treatment and incubated with freshly thawed CAR T cells from three donors alone or in the presence of a blocking IL-2 antibody. After short term stimulation, CAR T cells were then assessed by flow cytometry for phosphorylated STAT5.

[14] = test system: anti-CD19 CAR T cells; experiment: RNA-seq of CAR T cells sorted from tumor spheroids, Compound 1 after chronic stimulation; format: cell-based, human; conditions: 0.1 μM and 1 μM after chronic stimulation
Procedure: Gene expression analysis of CAR T cells sorted from tumor spheroids 5 days after co-culture was analyzed by RNA sequencing (RNA-seq) on the complementary DNA (cDNA) samples prepared from the RNA isolated from the long-term stimulated CAR-expressing T cells or on CAR-expressing T cells that had not undergone the long-term stimulation. […] Differential locus selection cut off was q<0.05 and absolute log 2 fold change>0.5 for RNA-seq.

T1 sequence (Q13422 whole entry): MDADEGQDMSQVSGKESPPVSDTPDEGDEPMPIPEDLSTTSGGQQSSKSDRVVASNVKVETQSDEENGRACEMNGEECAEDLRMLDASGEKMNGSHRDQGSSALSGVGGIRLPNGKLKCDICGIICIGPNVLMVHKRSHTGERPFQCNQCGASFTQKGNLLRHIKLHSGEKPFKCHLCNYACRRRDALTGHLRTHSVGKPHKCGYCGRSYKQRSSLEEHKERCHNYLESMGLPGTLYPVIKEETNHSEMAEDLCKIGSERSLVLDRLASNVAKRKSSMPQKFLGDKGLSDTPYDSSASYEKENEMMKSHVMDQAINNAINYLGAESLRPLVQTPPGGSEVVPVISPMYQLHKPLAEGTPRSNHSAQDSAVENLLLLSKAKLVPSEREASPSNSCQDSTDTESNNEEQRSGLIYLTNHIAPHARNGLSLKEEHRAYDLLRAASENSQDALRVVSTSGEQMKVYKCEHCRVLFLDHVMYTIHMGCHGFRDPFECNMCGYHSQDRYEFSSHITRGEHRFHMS
T1 sequence (Q96SW2 whole entry): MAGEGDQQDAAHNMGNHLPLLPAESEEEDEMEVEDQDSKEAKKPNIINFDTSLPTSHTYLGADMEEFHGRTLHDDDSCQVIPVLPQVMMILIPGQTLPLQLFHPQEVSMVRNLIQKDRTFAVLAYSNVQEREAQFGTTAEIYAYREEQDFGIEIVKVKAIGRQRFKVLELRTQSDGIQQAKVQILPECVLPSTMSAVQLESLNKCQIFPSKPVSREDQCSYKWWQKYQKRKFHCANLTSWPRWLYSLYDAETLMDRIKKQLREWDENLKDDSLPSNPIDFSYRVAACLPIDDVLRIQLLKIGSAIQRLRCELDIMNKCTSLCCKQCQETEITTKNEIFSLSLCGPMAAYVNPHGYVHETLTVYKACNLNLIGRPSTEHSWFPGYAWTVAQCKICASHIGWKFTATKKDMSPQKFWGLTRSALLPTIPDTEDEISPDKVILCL
T1 sequence (Q16531 whole entry partner): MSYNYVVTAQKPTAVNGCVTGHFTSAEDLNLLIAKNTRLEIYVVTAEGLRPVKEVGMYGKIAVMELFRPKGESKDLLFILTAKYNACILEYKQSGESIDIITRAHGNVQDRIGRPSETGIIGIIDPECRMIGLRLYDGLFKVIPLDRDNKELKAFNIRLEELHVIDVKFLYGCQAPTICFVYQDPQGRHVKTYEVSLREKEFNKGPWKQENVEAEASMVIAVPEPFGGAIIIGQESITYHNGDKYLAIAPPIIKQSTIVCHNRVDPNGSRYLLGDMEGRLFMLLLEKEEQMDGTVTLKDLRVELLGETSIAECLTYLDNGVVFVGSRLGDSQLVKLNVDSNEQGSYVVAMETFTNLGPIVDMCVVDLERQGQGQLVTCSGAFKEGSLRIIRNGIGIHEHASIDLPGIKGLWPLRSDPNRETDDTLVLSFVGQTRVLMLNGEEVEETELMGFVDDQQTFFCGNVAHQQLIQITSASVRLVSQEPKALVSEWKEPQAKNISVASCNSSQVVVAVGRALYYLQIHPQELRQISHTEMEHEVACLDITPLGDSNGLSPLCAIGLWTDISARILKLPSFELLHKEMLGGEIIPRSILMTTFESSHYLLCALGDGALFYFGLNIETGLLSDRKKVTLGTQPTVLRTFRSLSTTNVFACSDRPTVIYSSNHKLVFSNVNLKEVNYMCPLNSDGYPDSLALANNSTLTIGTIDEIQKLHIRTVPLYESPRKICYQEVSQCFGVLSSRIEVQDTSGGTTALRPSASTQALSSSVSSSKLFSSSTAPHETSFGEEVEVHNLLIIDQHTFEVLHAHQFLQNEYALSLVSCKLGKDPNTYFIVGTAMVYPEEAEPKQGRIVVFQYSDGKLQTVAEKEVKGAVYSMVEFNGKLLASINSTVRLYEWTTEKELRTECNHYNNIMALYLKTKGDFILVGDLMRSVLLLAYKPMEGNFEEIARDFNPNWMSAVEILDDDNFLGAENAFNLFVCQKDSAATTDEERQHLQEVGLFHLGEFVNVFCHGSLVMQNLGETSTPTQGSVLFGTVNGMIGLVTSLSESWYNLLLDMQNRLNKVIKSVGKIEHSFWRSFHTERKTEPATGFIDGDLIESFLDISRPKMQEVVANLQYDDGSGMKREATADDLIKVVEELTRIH

O=C1CC[C@H](N2Cc3c(OCc4ccc(CN5CCOCC5)cc4)cccc3C2=O)C(=O)N1 [Compound 2, (S)-3-[4-(4-morpholin-4-ylmethyl-benzyloxy)-1-oxo-1,3-dihydro-isoindol-2-yl]-piperidine-2,6-dione]
cytolytic function against Granta-519 tumor spheroids (tumor volume after 9 days) ([1]; 0.001 μM or 0.01 μM concurrent): significantly increased cytolytic function
IFNγ in supernatant ([1]; 5 days co-culture, concurrent treatment): statistically significant increase
improvement in cytolytic function compared with Compound 1 ([1]; concurrent treatment): greater with concurrent treatment with Compound 2 than Compound 1
RL tumor cell line sensitivity to monotherapy ([2]; 0.01 μM or 0.1 μM doses): sensitive
cytolytic CAR T cell function against RL tumor cells ([2]; E:T 1:1): improved cytolytic CAR T cell function
cytolytic activity and cytokine production of chronically stimulated anti-BCMA CAR T cells [3]: increased cytolytic activity

Nc1cccc2c1CN(C1CCC(=O)NC1=O)C2=O (stereo not shown) [lenalidomide, 3-(4-amino-1-oxo-1,3-dihydro-2H-isoindol-2-yl)piperidine-2,6-dione]
IL-2, IFNγ and TNF-α in culture supernatants ([4]; 10 μM, E:T 0.3:1, 48 hours): increase
cytokine production in RPMI-8226 co-culture ([4]; all donors and cytokines): significantly increased
CD25+ expression in CD4+ and CD8+ T cell populations [5]: increase
total number of CD3+ cells at day 7 ([5]; cultures with anti-BCMA CAR+ T cells): increase
anti-CD19 CAR+ T cell cytolytic activity [6]: decrease
RPMI 8226 target cell viability without CAR T cells ([7]; 5 μM): did not directly influence target cell viability
cytolytic activity of the CAR+ T cells ([7]; 5 μM preincubation during the seven day bead incubation): increased
killing activity ([7]; lenalidomide present during the cell killing assay): did not substantially affect
surface markers CD25 and CD69 [8]: increase
expression of the surrogate marker for CAR expression [8]: Increased expression
expression of PD-1 [8]: increased
CAR+ T cell counts ([9]; 100 nM): increased CAR+ T cell counts for two out of three donors
cell doublings ([9]; 2.5:1 E:T ratio, later rounds): lower cell doublings were only observed in two of the donors
cell doublings ([9]; 10:1 E:T ratio, after 3-4 rounds, all donors): decreased cell doublings
CD25 and LAG3 expression [9]: upregulated
PD-1 expression ([9]; all donors): downregulated
cytolytic activity after serial stimulation [9]: increase the cytolytic activity
CCR7 expression [9]: generally decreased
expression of genes associated with a hypofunctional, exhausted state [10]: partial reversal of expressed genes
CAR-mediated cytolytic activity [11]: reduced

Cc1nc2cccc(N)c2c(=O)n1C1CCC(=O)NC1=O (stereo not shown) [Compound 1, 3-(5-amino-2-methyl-4-oxo-4H-quinazolin-3-yl)-piperidine-2,6-dione]
reduction in Ikaros expression compared to lenalidomide [12]: greater reduction
intracellular Ikaros expression ([12]; CD4+ and CD8+ anti-CD19 CAR-expressing T cells): concentration-dependent decrease
median fluorescence intensity of phosphorylated STAT5 (pSTAT5) [13]: increased
surface markers CD25 and CD69 [8]: increase
expression of the surrogate marker for CAR expression [8]: Increased expression
expression of PD-1 [8]: increased
cell counts of anti-CD19 CAR-expressing T cells ([9]; 10 nM and 100 nM, after 24 days): higher than the untreated controls for two out of three donors
number of doublings of CAR+ cells ([9]; 500 nM, rounds after 3-4 rounds of stimulation): lower than the untreated control groups
CD25 and LAG3 expression [9]: upregulated
PD-1 expression ([9]; all donors): downregulated
cytolytic activity after serial stimulation [9]: increase the cytolytic activity
CCR7 expression [9]: generally decreased
expression of genes associated with a hypofunctional, exhausted state [14]: partial reversal of expressed genes
expression of genes associated with a hypofunctional, exhausted state [10]: partial reversal of expressed genes
